# Measured values as given in ChEMBL document CHEMBL1136533, “Hemisynthesis and preliminary evaluation of novel endocannabinoid analogues” (Bioorg Med Chem Lett, 2003).
# Legend:
# [1] = biological target: Cannabinoid receptor 1 (Rattus norvegicus) (UniProt P20272); assay: Percentage affinity towards Cannabinoid receptor 1 using [3H]CP-55940 as radioligand in rat forebrain membranes; format: cell membranes; details: Membrane
# [2] = biological target: T1, Fatty-acid amide hydrolase 1 (Rattus norvegicus, UniProt P97612); assay: Binding affinity towards Fatty-acid amide hydrolase (FAAH) in rat forebrain membranes; format: cell membranes, Membrane
# T1 sequence (P97612 whole entry): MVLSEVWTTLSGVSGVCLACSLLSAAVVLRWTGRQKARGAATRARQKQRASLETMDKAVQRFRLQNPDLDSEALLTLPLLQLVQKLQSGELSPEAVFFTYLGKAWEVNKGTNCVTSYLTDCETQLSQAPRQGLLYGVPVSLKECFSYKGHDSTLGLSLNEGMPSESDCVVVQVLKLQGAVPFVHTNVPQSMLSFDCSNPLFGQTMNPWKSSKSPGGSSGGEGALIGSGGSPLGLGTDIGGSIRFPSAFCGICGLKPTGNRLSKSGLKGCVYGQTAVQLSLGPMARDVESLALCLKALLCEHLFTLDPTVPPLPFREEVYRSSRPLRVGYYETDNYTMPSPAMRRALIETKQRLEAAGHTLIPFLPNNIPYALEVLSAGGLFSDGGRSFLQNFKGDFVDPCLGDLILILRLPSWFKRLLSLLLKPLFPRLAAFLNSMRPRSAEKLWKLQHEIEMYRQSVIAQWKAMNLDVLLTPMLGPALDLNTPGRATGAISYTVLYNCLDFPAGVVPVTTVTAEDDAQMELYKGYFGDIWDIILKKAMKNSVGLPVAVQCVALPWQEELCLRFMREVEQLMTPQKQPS
# [3] = biological target: T2, Fatty-acid amide hydrolase 1 (Rattus norvegicus) (UniProt P97612); assay: Inhibitory effect on the Fatty-acid amide hydrolase (FAAH) activity was determined by % inhibition of anandamide hydrolysis at 10 uM concentration of compound; format: functional
# T2 sequence (whole entry): T1 sequence (P97612 whole entry)
# [4] = biological target: T2, Fatty-acid amide hydrolase 1 (Rattus norvegicus); assay: Inhibitory effect on the Fatty-acid amide hydrolase (FAAH) activity was determined by % inhibition of anandamide hydrolysis at 1 uM concentration of compound; format: functional
# Cannabinoid receptor 1 = Cannabinoid receptor 1 (Rattus norvegicus, UniProt P20272); assay: Binding affinity towards Cannabinoid receptor 1 in rat forebrain membranes using [3H]CP-55940 as radioligand; format: cell membranes, Membrane
# Sequence of Cannabinoid receptor 1 (P20272 whole entry): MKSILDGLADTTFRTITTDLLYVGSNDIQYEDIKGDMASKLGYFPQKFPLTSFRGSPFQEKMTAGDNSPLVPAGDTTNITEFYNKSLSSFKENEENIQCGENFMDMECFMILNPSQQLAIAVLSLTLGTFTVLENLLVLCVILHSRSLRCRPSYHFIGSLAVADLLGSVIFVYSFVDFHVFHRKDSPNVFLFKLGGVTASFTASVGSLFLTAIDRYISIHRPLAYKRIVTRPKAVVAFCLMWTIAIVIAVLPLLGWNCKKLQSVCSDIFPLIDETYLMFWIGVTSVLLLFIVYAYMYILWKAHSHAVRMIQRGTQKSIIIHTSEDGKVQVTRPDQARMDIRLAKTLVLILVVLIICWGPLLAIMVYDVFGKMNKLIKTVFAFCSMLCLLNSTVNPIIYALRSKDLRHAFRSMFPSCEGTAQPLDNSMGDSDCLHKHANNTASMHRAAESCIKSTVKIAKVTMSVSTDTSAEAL
# Sequence of Cannabinoid receptor 1 (Rattus norvegicus) (P20272 whole entry): as above
Compound,Affinity [1] [%],Ki [2] [µM],Inhibition of anandamide hydrolysis [3] [%],Inhibition of anandamide hydrolysis [4] [%],Ki (Cannabinoid receptor 1) [µM]
CCCCC/C=C\C/C=C\C/C=C\C/C=C\CCCC(=O)NCCO [ANANDAMIDE],19,3,–,–,–
CCCCC/C=C\C/C=C\CCCCCCCC(=O)CCCO,72,–,100,100,–
CCCCC/C=C\C/C=C\C/C=C\C/C=C\CCCC(=O)CCCO,38,–,78,91,0.36
CCCCC/C=C\C/C=C\C/C=C\C/C=C\CCCC(=O)OCCO,83,–,70,100,> 10
CCCCC/C=C\C/C=C\C/C=C\C/C=C\CCC(C)(C)C(=O)OCCO,100,2.1,12,90,> 10
